# From patent US20170333591A9, “ABSORBENT ARTICLE COMPRISING MALODOR REDUCTION COMPOSITIONS” (The Procter & Gamble Company, priority 2014, published 2017)
# Assay: Log of liquid dish neat product liquid-air partition coefficient
# Type: physicochemical
# Settings: not given
row,SMILES,Comment Code: Log of liquid dish neat product liquid-air partition coefficient
1,CC(=O)C1=C(C)[C@@H]2C[C@@]3(C1)[C@H](C)CC[C@H]3C2(C)C [Material 1129],K (Log of liquid dish neat product liquid-air partition coefficient greater than or equal to 7)
2,C=CC(C)(CCC=C(C)C)OC=O (stereo not drawn) [Material 150],K (Log of liquid dish neat product liquid-air partition coefficient greater than or equal to 7)
3,COc1ccc(C(C)=O)cc1 [Material 761],K (Log of liquid dish neat product liquid-air partition coefficient greater than or equal to 7)
4,CC(=O)OC(C)c1ccccc1 (stereo not drawn) [Material 1041],K (Log of liquid dish neat product liquid-air partition coefficient greater than or equal to 7)
5,C=CC1(C)Cc2occ(C)c2CC1C(=C)C (stereo not drawn) [Material 488],K (Log of liquid dish neat product liquid-air partition coefficient greater than or equal to 7)
6,CC(=CCCC1(C)C2CC3C(C2)C31C)CO (stereo not drawn) [Material 694],K (Log of liquid dish neat product liquid-air partition coefficient greater than or equal to 7)
7,CC1=CC[C@@H]2[C@@]3(C)CCCC(C)(C)[C@@H]3CC[C@@]2(C)O1 [Material 1029],K (Log of liquid dish neat product liquid-air partition coefficient greater than or equal to 7)
8,CC(C)(C)c1ccc(CC=O)cc1 [Material 994],K (Log of liquid dish neat product liquid-air partition coefficient greater than or equal to 7)
9,CCC(C)(O)/C=C/C=C(C)C (stereo not drawn) [Material 81],K (Log of liquid dish neat product liquid-air partition coefficient greater than or equal to 7)
10,CC(C)CC(=O)OCc1ccccc1 [Material 645],K (Log of liquid dish neat product liquid-air partition coefficient greater than or equal to 7)

# Same assay, conditions: Comment Code letters K and/or L
row,SMILES,Log of liquid dish neat product liquid-air partition coefficient (Comment Code K/L)
1,CC(=O)C1=C(C)[C@@H]2C[C@@]3(C1)[C@H](C)CC[C@H]3C2(C)C [Material 1129],K (Log of liquid dish neat product liquid-air partition coefficient greater than or equal to 7)

# Same assay, conditions: code letter within the Comment Code cell
row,SMILES,Log of liquid dish neat product liquid-air partition coefficient (Comment Code K/L)
1,CCC(=O)OCC=Cc1ccccc1 [Material 548],K (Log of liquid dish neat product liquid-air partition coefficient greater than or equal to 7)
2,CC(C)C(=O)OCC=Cc1ccccc1 [Material 550],K (Log of liquid dish neat product liquid-air partition coefficient greater than or equal to 7)
3,CCCCCCOC(=O)c1ccccc1 [Material 271],K (Log of liquid dish neat product liquid-air partition coefficient greater than or equal to 7)
4,CCCCCCCCCCCCCC#N [Material 38],K (Log of liquid dish neat product liquid-air partition coefficient greater than or equal to 7)
5,CCCCCCCCCCCC(=O)OC(C)C [Material 197],K (Log of liquid dish neat product liquid-air partition coefficient greater than or equal to 7)
6,C=CCCCCCCCCC(=O)OCCC(C)C [Material 234],K (Log of liquid dish neat product liquid-air partition coefficient greater than or equal to 7)
7,CCOC(C=C(C)CCC=C(C)C)OCC [Material 521],K (Log of liquid dish neat product liquid-air partition coefficient greater than or equal to 7)
8,OC1CCC2CCCCC2C1 (stereo not drawn) [Material 474],K (Log of liquid dish neat product liquid-air partition coefficient greater than or equal to 7)
9,CCCCCCCCCCCCCCCC(=O)OC [Material 109],K (Log of liquid dish neat product liquid-air partition coefficient greater than or equal to 7)
10,CCNC(=O)C1CC(C)CCC1C(C)C (stereo not drawn) [Material 57],K (Log of liquid dish neat product liquid-air partition coefficient greater than or equal to 7)
11,C=C(C)C1CC=C(C)C(O)C1 (stereo not drawn) [Material 170],K (Log of liquid dish neat product liquid-air partition coefficient greater than or equal to 7)
12,C=CC1(C)Cc2occ(C)c2CC1C(=C)C (stereo not drawn) [Material 488],K (Log of liquid dish neat product liquid-air partition coefficient greater than or equal to 7)
13,CC(=O)OCCC1=CCC2CC1C2(C)C (stereo not drawn) [Material 47],K (Log of liquid dish neat product liquid-air partition coefficient greater than or equal to 7)
14,C=CC(C)CCC=C(C)CCC=O (racemic) [Material 358],K (Log of liquid dish neat product liquid-air partition coefficient greater than or equal to 7)
15,O=C1CCC=CCCCCCCCCCC1 [Material 371],K (Log of liquid dish neat product liquid-air partition coefficient greater than or equal to 7)
16,CCCCCCCC1CCCC(=O)O1 (stereo not drawn) [Material 463],K (Log of liquid dish neat product liquid-air partition coefficient greater than or equal to 7)
17,C=CC(O)(CC)CCC=C(C)C (stereo not drawn) [Material 390],K (Log of liquid dish neat product liquid-air partition coefficient greater than or equal to 7)
18,C=CC(=C)CCCC(C)(C)OC(C)=O [Material 35],K (Log of liquid dish neat product liquid-air partition coefficient greater than or equal to 7)
19,CC(C)c1ccc(CO)cc1 [Material 491],K (Log of liquid dish neat product liquid-air partition coefficient greater than or equal to 7)
20,CC(=CC#N)CCc1ccccc1 [Material 505],K (Log of liquid dish neat product liquid-air partition coefficient greater than or equal to 7)
21,CCCCCCCCCCCCCC(=O)OC [Material 104],K (Log of liquid dish neat product liquid-air partition coefficient greater than or equal to 7)
22,CCc1ccc(CC(C)(C)C#N)cc1 [Material 361],K (Log of liquid dish neat product liquid-air partition coefficient greater than or equal to 7)
23,CC1OCC(c2ccccc2)O1 (stereo not drawn) [Material 190],K (Log of liquid dish neat product liquid-air partition coefficient greater than or equal to 7)
24,Cc1ccc2c(c1)CC(C)(CO)C2 (stereo not drawn) [Material 161],K (Log of liquid dish neat product liquid-air partition coefficient greater than or equal to 7)

# Same assay, conditions: code letters K/L of the Comment Code
row,SMILES,Log of liquid dish neat product liquid-air partition coefficient (Comment Code)
1,CC(CO)CCCc1ccccc1 (stereo not drawn) [Material 1012],K (Log of liquid dish neat product liquid-air partition coefficient greater than or equal to 7)
2,CC1=CCOC(c2ccccc2)C1 (stereo not drawn) [Material 1016],K (Log of liquid dish neat product liquid-air partition coefficient greater than or equal to 7)
3,C=C(C)C1CCC2(C)CCC=C(C)C2C1 (stereo not drawn) [Material 774],K (Log of liquid dish neat product liquid-air partition coefficient greater than or equal to 7)
4,CC(=O)C=CC12OC1(C)CCCC2(C)C (stereo not drawn) [Material 636],K (Log of liquid dish neat product liquid-air partition coefficient greater than or equal to 7)
5,CC1CCC2(O1)C(C)(C)CCCC2(C)O (stereo not drawn) [Material 893],K (Log of liquid dish neat product liquid-air partition coefficient greater than or equal to 7)
6,CCCCCC1C(=O)CCC1CC(=O)OC (stereo not drawn) [Material 1083],K (Log of liquid dish neat product liquid-air partition coefficient greater than or equal to 7)
7,OCCOc1ccccc1 [Material 834],K (Log of liquid dish neat product liquid-air partition coefficient greater than or equal to 7)
8,CC(=CCCC1(C)C2CC3C(C2)C31C)CO (stereo not drawn) [Material 694],K (Log of liquid dish neat product liquid-air partition coefficient greater than or equal to 7)
9,CC1=CC[C@@H]2[C@@]3(C)CCCC(C)(C)[C@@H]3CC[C@@]2(C)O1 [Material 1029],K (Log of liquid dish neat product liquid-air partition coefficient greater than or equal to 7)
10,CCCCCCCCCCO [Material 868],K (Log of liquid dish neat product liquid-air partition coefficient greater than or equal to 7)
11,CC(C)=CCC/C(C)=C/CC/C(C)=C/CO [Material 1065],K (Log of liquid dish neat product liquid-air partition coefficient greater than or equal to 7)
12,CCC(C)C(=O)OCCc1ccccc1 (stereo not drawn) [Material 954],K (Log of liquid dish neat product liquid-air partition coefficient greater than or equal to 7)
13,CCC(C)(O)CCc1ccccc1 (stereo not drawn) [Material 731],K (Log of liquid dish neat product liquid-air partition coefficient greater than or equal to 7)
14,CC(C)=CCC=C(C)C1CC=C(C)CC1 (stereo not drawn) [Material 719],K (Log of liquid dish neat product liquid-air partition coefficient greater than or equal to 7)
15,CC1(O)CCC2=C(CCCC2(C)C)C1 (stereo not drawn) [Material 675],K (Log of liquid dish neat product liquid-air partition coefficient greater than or equal to 7)
16,CC(=CCC1CC=C(C)C1(C)C)CO (stereo not drawn) [Material 908],K (Log of liquid dish neat product liquid-air partition coefficient greater than or equal to 7)
17,CC1CC(C)(C)OC(Cc2ccccc2)O1 (stereo not drawn) [Material 1003],K (Log of liquid dish neat product liquid-air partition coefficient greater than or equal to 7)
18,CC1=CCCC2(C)OC2CCC(C)=CCC1 (stereo not drawn) [Material 568],K (Log of liquid dish neat product liquid-air partition coefficient greater than or equal to 7)
19,CC(C)(C)c1ccc(CCC=O)cc1 [Material 601],K (Log of liquid dish neat product liquid-air partition coefficient greater than or equal to 7)
